The results in this text go back to patent publication US20250000043A1, “NON-TRANSGENIC SUNFLOWER PLANTS HAVING INCREASED TOLERANCE TO HERBICIDES” (BASF Agricultural Solutions Seed US LLC, priority 2021, published 2025).

The IC50 is the concentration that gives 50% inhibition. A low value points to higher potency.

The target of one experiment is wild-type PPO2 enzyme (Helianthus annuus, UniProt A0A251TWC2). As to the kind of experiment: In vitro PPO inhibition assay, wild type enzyme (Example 5). It counts as biochemical, sunflower. The text has this:
To test whether the PPO2_F383I is the main cause of the observed saflufenacil tolerance, we used an in vitro to compare the inhibition potency (IC50) of different PPO inhibiting herbicides between wild-type and mutant PPO2 enzyme. The in vitro assay assesses the oxidation of protoporphyrinogen IX to protoporphyrin IX, catalyzed by the PPO enzyme. Both the wild type and mutant PPO2 proteins were heterologously expressed in E. coli and purified. Purified protein was mixed with different concentrations of the herbicide ranging from 10^−5M to 10^−11M and protein activity was measured. Protein activity is defined as the fluorescence per minute that the reaction generates. In the reaction, the purified PPO enzyme is mixed with substrate protoporphyrinogen IX and the herbicide. The product of the reaction is excited at 405 nm and produces a fluorescence at 630 nm which we detect. IC50 (in Mol) and tolerance factor were calculated.

The test system of another experiment is PPO2_F383I mutant lines. As to the kind of experiment: Advanced field trial with saflufenacil, Utrera 2021 (Example 4). It counts as in vivo, Helianthus annuus. How it is done: M6 seed of eleven lines all originating from the nine plants carrying the PPO2_F383I mutation but with a different pedigree were assessed in an advanced field trial. The advanced field trial was manually planted in Utrera, Spain, on May 3, 2021. One row per mutant entry per plot was considered, and thirty-two seeds were planted per mutant entry per row per plot. Saflufenacil was applied in four increasing rates (0×: 0 g a.i/ha, 0.5×=12.5 g a.i./ha; 1×=25 g a.i./ha and 2×=50 g a.i./ha) when plants were at the BBCH12-14 growth stage. Saflufenacil application took place on Jul. 26, 2021. The field trial design was a strip-block design with four replications.
Phytotoxicity evaluations were done at 2, 5, 12, 19 and 26 days after treatment (DAT) with saflufenacil. As discussed previously, phytotoxicity of the mutant entries and wild type control were scored in each of the evaluation days after saflufenacil treatment. Eleven mutant lines were tested. The field tested one mutant line per row 32 seeds per row, for each saflufenacil rate treatment and replication, this means every plot was made of a single row, so the plot was the row for each mutant line. The phytotoxicity % score was given for each row in comparison to the untreated row of the same mutant line (control), meaning all 11 mutant lines were assessed for phytotoxicity % in all treatments and replications. Phytotoxicity was visually recorded at each evaluation time after saflufenacil application on a per plot basis based on the rating scale table (below).
To better reflect the tolerance of surviving plants, data were expressed in percent herbicide tolerance efficacy by using the formula below:
where: • 0% means no tolerance • 100% means full tolerance

wild-type PPO2 enzyme, sequence (A0A251TWC2 entry or part of it): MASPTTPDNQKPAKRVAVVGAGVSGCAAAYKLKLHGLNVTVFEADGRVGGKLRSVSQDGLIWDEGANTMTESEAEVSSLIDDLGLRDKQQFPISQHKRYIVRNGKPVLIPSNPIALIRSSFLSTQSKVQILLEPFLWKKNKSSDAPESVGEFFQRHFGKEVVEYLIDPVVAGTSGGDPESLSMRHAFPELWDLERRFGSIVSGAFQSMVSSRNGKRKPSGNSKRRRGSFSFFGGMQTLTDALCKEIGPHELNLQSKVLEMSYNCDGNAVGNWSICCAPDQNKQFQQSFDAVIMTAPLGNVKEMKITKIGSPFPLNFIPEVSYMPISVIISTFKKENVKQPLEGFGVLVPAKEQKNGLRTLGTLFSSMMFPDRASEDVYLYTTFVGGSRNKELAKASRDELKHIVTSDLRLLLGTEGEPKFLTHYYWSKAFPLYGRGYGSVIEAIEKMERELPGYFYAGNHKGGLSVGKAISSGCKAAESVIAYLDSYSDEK

As for `CC(C)N(C)S(=O)(=O)NC(=O)c1cc(-n2c(=O)cc(C(F)(F)F)n(C)c2=O)c(F)cc1Cl` [Saflufenacil], the IC50 against wild-type PPO2 enzyme was 1.46 nM. Also, the “survival and seed production” value in the experiment on PPO2_F383I mutant lines (50 g a.i./ha in the field) was “survive and produce seeds”. The “impact on days to 50% flowering versus untreated” value in the experiment with PPO2_F383I mutant lines (across entries and saflufenacil rates) is reported as ≤ 5 days. For the same compound, the “tolerance efficacy (%)” value in the experiment with PPO2_F383I mutant lines (all eleven mutant lines, all rates (12.5, 25, 50 g a.i./ha)) was “high tolerance efficacy”. Also, the plant recovery result in the experiment with PPO2_F383I mutant lines (all rates including 2x (50 g a.i./ha)) is reported as “start to significantly recover at 19 DAT”. Also, the “phytotoxicity at peak, compared to untreated controls” value with PPO2_F383I mutant lines (eleven mutant entries, field, 12.5, 25 and 50 g a.i./ha) is listed as “higher than 15%”. For the same compound, in the experiment on PPO2_F383I mutant lines (when flowering was completed, 73 DAT), the “plant height, treated versus untreated” value is on record as “untreated plants showed a greater plant height compared to treated plants”.
